Values after ≈ are worked out from the molar mass of the structure shown.

Experiment [1] has as its system clinical drug-resistant strain 040 of mycobacterium tuberculosis. Put plainly: microbe, parasite or virus in culture. Particulars: read-out: MIC, M.tb stains (drug-resistant strains) 40. The format is cell-based.
The test system of experiment [2] is clinical drug-resistant strain 004 of mycobacterium tuberculosis. Briefly: microbe, parasite or virus in culture. Particulars: read-out: MIC, M.tb stains (drug-resistant strains) 004. Format: cell-based.

Regarding `COc1cc2ccc(Br)cc2cc1C(c1cccc(Cl)c1)C(O)(CCN(C)C)c1cccc2ccccc12` (stereo not shown) [Compound 35, 1-(3-chlorophenyl)-2-(1-naphthyl)-1-[2-(7-bromo-3-methoxy)naphthyl]-4-(N,N-dimethylamino)-butan-2-ol], the MIC in experiment [1] was determined as 0.125 µg/mL (≈ 0.212 µM); in experiment [2] it was 0.5 µg/mL (≈ 0.849 µM).
With `COc1cc2ccc(Br)cc2cc1C(c1cccc(C)c1)C(O)(CCN(C)C)c1cccc2ccccc12` (stereo not shown) [Compound 37, 1-(3-methylphenyl)-2-(1-naphthyl)-1-[2-(7-bromo-3-methoxy)naphthyl]-4-(N,N-dimethylamino)-butan-2-ol], the MIC in experiment [1] is 0.125 µg/mL (≈ 0.22 µM); in experiment [2] it was 0.5 µg/mL (≈ 0.879 µM).

The values above are taken from patent publication US8674136B2, “Aromatic butan-2-ol compounds and preparation and uses thereof” (Institute of Pharmacology and Toxicology Academy of …, priority 2010, dated 2014).
